The record followed here is patent US20060183902A1, “Dihydroindolyl methanones as alpha 1a/1d adrenoreceptor modulators for the treatment of benign prostatic hypertrophy and lower urinary tract symptoms” (priority 2005, published 2006).

As usually defined, the Ki is a measure of affinity in units of concentration, obtained from inhibition or displacement.

In experiment [1] the target is T1, α1a-AR (Homo sapiens, UniProt P35348).
T1 construct: expressed in transfected cells; host or cells: COS-7
T1 sequence (P35348 1-466): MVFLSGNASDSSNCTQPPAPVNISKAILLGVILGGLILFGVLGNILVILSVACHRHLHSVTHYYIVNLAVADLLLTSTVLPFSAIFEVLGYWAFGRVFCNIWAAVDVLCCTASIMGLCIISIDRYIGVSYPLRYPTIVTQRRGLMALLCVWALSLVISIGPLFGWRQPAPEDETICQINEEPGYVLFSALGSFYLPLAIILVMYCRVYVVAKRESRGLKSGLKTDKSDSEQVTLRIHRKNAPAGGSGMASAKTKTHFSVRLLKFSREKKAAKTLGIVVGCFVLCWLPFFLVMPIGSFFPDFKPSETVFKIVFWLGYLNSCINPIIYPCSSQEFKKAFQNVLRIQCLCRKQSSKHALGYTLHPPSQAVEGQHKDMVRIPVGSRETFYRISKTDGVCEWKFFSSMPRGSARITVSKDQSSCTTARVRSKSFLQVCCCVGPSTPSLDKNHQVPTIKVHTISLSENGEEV
Briefly: α1-Adrenergic receptor radio-ligand (125I-HEAT) binding assay, α1a subtype. The following applies: COS-7 cell membranes transfected with α1a-AR, 125I-HEAT 50 pM; read-out: Receptor Binding, Ki α1a-AR. As to the method:
(§1) Membranes were prepared from COS-7 cells (African Green monkey kidney SV40-transformed cells) that had been transfected with one of the three α1-AR subtypes by the following method:
(§2) COS cells from ten 100 mm tissue culture plates were scraped into a 5 mL volume of TE (a mixture of 50 mM tris(hydroxymethyl)aminomethane hydrochloride (Tris-HCl) and 5 mM ethylenediaminetetraacetic acid (EDTA) at pH 7.4). The cell suspension was disrupted with a Brinkman Polytron (at a setting of 8) for 10 sec. The disrupted cells were centrifuged at 1000×g for 10 min at 4° C. Supernatants were centrifuged at 34,500×g for 20 min at 4° C. The membrane pellets were suspended in a 2 mL volume of TNE (a mixture of 50 mM Tris-HCl, 5 mM EDTA and 150 mM NaCl at pH7.4). An aliquot of the membrane suspension was stored at −70° C. until use. The protein concentration was determined using a BioRad “DC” protein assay kit following membrane solubilization with Triton X-100.
(§3) Triplicate determinations of radio-ligand binding in the presence of increasing concentrations of testing compound were made. The reagents were added to 96-well polypropylene plate wells. Each assay well contained 140 μL TNE, 25 μL ^125I-2-(β-4-hydroxyplenyl)ethylaminomethyltetralone (^125I-HEAT) (specific activity 2200 Ci/mmol, Dupont-New England Nuclear, 50 pM final), 10 μL testing compound dissolved in dimethyl sulfoxide (DMSO) (1 pM to 10 μM in half-log increments, final), and 25 μL appropriate α1-AR membrane subtype suspension in TNE (0.5 ng/μL for the α1a and α1b subtypes and 13 ng/μL for the α1d subtype). The plate was incubated at rt for 1 hr. The contents of the wells were filtered through a glass filter (type C) (GF/C) membrane Unifilter plate (Packard Instruments) using the Packard Filtermate cell harvester. The filter plates were dried in a vacuum oven for 30 min at 40° C. 25 μL Microscint 20 liquid scintillation fluid (Packard Instuments) was added to each well. The radioactive content was analyzed in the TopCount microplate scintillation counter (Packard Instruments).
(§4) The Ki values (in nM) shown in Table 1 were determined using GraphPad Prism software.

For experiment [2], the target named is T2, α1d-AR (Homo sapiens, UniProt P25100).
T2 construct: expressed in transfected cells; host or cells: COS-7
T2 sequence (P25100 1-572): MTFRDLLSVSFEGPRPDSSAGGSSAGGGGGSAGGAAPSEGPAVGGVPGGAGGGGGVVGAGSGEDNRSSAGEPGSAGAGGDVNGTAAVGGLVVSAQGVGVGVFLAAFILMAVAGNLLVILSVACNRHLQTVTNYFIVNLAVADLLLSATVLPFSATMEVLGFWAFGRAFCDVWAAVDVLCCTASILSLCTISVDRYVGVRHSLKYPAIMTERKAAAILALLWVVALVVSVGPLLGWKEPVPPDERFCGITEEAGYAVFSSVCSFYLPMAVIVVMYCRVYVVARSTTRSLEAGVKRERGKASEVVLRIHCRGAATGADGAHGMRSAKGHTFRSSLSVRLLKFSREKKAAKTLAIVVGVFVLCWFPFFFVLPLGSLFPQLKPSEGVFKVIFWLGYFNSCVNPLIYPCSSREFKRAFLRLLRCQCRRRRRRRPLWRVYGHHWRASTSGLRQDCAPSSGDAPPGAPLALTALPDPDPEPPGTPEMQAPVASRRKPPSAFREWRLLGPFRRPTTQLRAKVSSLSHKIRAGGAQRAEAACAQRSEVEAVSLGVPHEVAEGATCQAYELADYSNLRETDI
Briefly: α1-Adrenergic receptor radio-ligand (125I-HEAT) binding assay, α1d subtype. The following applies: COS-7 cell membranes transfected with α1d-AR, 125I-HEAT 50 pM; read-out: Receptor Binding, Ki α1d-AR. As to the method:
as §1, §2, §3, §4

In experiment [3] the target is T3, α1b-AR (Homo sapiens, UniProt P35368).
T3 construct: expressed in transfected cells; host or cells: COS-7
T3 sequence (P35368 1-520): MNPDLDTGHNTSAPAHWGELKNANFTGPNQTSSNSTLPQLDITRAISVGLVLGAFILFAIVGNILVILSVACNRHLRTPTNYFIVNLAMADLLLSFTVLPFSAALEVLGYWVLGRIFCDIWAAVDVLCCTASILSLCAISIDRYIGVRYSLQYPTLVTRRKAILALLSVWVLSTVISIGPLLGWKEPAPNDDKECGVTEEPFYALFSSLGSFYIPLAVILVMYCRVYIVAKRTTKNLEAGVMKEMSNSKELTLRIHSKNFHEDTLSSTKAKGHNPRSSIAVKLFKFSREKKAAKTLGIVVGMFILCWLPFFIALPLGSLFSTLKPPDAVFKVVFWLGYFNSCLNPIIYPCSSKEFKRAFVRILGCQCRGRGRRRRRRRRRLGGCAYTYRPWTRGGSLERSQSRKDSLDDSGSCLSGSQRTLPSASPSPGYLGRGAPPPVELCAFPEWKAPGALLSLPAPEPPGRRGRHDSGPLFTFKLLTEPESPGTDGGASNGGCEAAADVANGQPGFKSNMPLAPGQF
Kind of experiment: α1-Adrenergic receptor radio-ligand (125I-HEAT) binding assay, α1b subtype. The following applies: COS-7 cell membranes transfected with α1b-AR, 125I-HEAT 50 pM; read-out: Receptor Binding, Ki α1b-AR. As to the method:
as §1, §2, §3, §4

Structures are written as SMILES. Several values for one entry are separate records, joined by “and”; a condition that tells them apart may be missing. Equal entries are not always repeated.

In the case of `CC(C)Oc1ccccc1N1CCN(Cc2cccc(C(=O)N3CCc4ccc(NC(=O)Nc5ccccc5)cc43)c2)CC1` [Cpd 22, 1-(1-{3-[4-(2-isopropoxy-phenyl)-piperazin-1-ylmethyl]-benzoyl}-2,3-dihydro-1H-indol-6-yl)-3-phenyl-urea], the results for the Ki in experiment [1], in experiment [2] and in experiment [3] were 39 nM, 5 nM and 251 nM, respectively.

Consider `CCOC(OCC)c1ccc(CNc2ccc3c(c2)CCN3C(=O)c2cccc(CN3CCN(c4ccccc4OC(C)C)CC3)c2)cc1` [Cpd 24, [5-(4-diethoxymethyl-benzylamino)-2,3-dihydro-indol-1-yl]-{3-[4-(2-isopropoxy-phenyl)-piperazin-1-ylmethyl]-phenyl}-methanone], for which the Ki in experiment [1] turned out to be 48 nM; in experiment [2] it was 15 nM; in experiment [3], 1470 nM.

With `CC(C)Oc1ccccc1N1CCN(Cc2cccc(C(=O)N3CCc4cc(NCc5ccc6c(c5)OCO6)ccc43)c2)CC1` [Cpd 27, {5-[(benzo[1,3]dioxol-5-ylmethyl)-amino]-2,3-dihydro-indol-1-yl}-{3-[4-(2-isopropoxy-phenyl)-piperazin-1-ylmethyl]-phenyl}-methanone], the Ki amounted to 16.5 nM in experiment [1], 11 nM in experiment [2] and 379 nM in experiment [3].

On to `COc1cccc(OC)c1C(=O)Nc1ccc2c(c1)N(C(=O)c1cccc(CN3CCN(c4ccccc4OC(C)C)CC3)c1)CC2` [Cpd 28, N-(1-{3-[4-(2-isopropoxy-phenyl)-piperazin-1-ylmethyl]-benzoyl}-2,3-dihydro-1H-indol-6-yl)-2,6-dimethoxy-benzamide], for which the Ki in experiment [1] amounted to 17 nM; in experiment [2] it was 6.8 nM; in experiment [3] it was 796 nM.

As to `COc1ccccc1N1CCN(Cc2cccc(C(=O)N3CCc4ccccc43)c2)CC1` [Cpd 30, (2,3-dihydro-indol-1-yl)-{3-[4-(2-methoxy-phenyl)-piperazin-1-ylmethyl]-phenyl}-methanone], the Ki in experiment [1] is 26 nM and 30.5 nM; in experiment [2] it was 4.5 nM and 42 nM; in experiment [3], 278 nM and 193 nM.

Take `N#Cc1ccccc1N1CCN(Cc2cccc(C(=O)N3CCc4ccccc43)c2)CC1` [Cpd 31, (2,3-dihydro-indol-1-yl)-{3-[4-(2-cyano-phenyl)-piperazin-1-ylmethyl]-phenyl}-methanone]: the Ki in experiment [1] was 171 nM; in experiment [2] it was 11.6 nM and 88 nM; in experiment [3] it was 331 nM.

As to `COc1ccccc1C1CCN(Cc2ccc(C(=O)N3CCc4cc(N)ccc43)cc2)CC1` [Cpd 33, (5-amino-2,3-dihydro-indol-1-yl)-{4-[4-(2-methoxy-phenyl)-piperidin-1-ylmethyl]-phenyl}-methanone], the Ki in experiment [1] is 48.8 nM; in experiment [2] it was 49.1 nM; in experiment [3], 658 nM.

Regarding `COc1ccccc1C1CCN(Cc2ccc(C(=O)N3CCc4ccc(N)cc43)cc2)CC1` [Cpd 34, (6-amino-2,3-dihydro-indol-1-yl)-{4-[4-(2-methoxy-phenyl)-piperidin-1-ylmethyl]-phenyl}-methanone], the Ki in experiment [1] is 34.9 nM; in experiment [2], 49.6 nM; in experiment [3] it was 473 nM.

Consider `COc1ccccc1C1CCN(Cc2ccc(C(=O)N3CCc4ccc([N+](=O)[O-])cc43)cc2)CC1` [Cpd 35, {4-[4-(2-methoxy-phenyl)-piperidin-1-ylmethyl]-phenyl}-(6-nitro-2,3-dihydro-indol-1-yl)-methanone], for which the Ki came to 5.3 nM in experiment [1], 8.5 nM in experiment [2] and 201 nM in experiment [3].

Turning to `CCOC(OCC)c1ccc(CNc2ccc3c(c2)CCN3C(=O)c2ccc(CN3CCC(c4ccccc4OC)CC3)cc2)cc1` [Cpd 36, [5-(4-diethoxymethyl-benzylamino)-2,3-dihydro-indol-1-yl]-{4-[4-(2-methoxy-phenyl)-piperidin-1-ylmethyl]-phenyl}-methanone], the values for the Ki in experiment [1], in experiment [2] and in experiment [3] were 39.2 nM, 40.2 nM and 1010 nM, respectively.

`CCOC(OCC)c1ccc(CNc2ccc3c(c2)N(C(=O)c2ccc(CN4CCC(c5ccccc5OC)CC4)cc2)CC3)cc1` [Cpd 37, [6-(4-diethoxymethyl-benzylamino)-2,3-dihydro-indol-1-yl]-{4-[4-(2-methoxy-phenyl)-piperidin-1-ylmethyl]-phenyl}-methanone]: the Ki in experiment [1] turned out to be 75.6 nM; in experiment [2] it was 98 nM; in experiment [3] it was 909 nM.

For `COc1ccccc1C1CCN(Cc2ccc(C(=O)N3CCc4cc([N+](=O)[O-])ccc43)cc2)CC1` [Cpd 38, {4-[4-(2-methoxy-phenyl)-piperidin-1-ylmethyl]-phenyl}-(5-nitro-2,3-dihydro-indol-1-yl)-methanone], the figures for the Ki in experiment [1], in experiment [2] and in experiment [3] were 124 nM, 44.2 nM and 461 nM, respectively.

On to `COc1ccccc1C1CCN(Cc2ccc(C(=O)N3CCc4ccc(NC(=O)c5c(OC)cccc5OC)cc43)cc2)CC1` [Cpd 39, 2,6-dimethoxy-N-(1-{4-[4-(2-methoxy-phenyl)-piperidin-1-ylmethyl]-benzoyl}-2,3-dihydro-1H-indol-6-yl)-benzamide], for which the Ki was 74 nM in experiment [1], 41 nM in experiment [2] and 595 nM in experiment [3].

As to `CC(C)Oc1ccccc1N1CCN(Cc2cccc(C(=O)N3CCc4ccc(NCc5ccc6c(c5)OCO6)cc43)c2)CC1` [Cpd 41, {6-[(benzo[1,3]dioxol-5-ylmethyl)-amino]-2,3-dihydro-indol-1-yl}-{3-[4-(2-isopropoxy-phenyl)-piperazin-1-ylmethyl]-phenyl}-methanone], the Ki in experiment [1] worked out at 31 nM; in experiment [2], 1.5 nM; in experiment [3] it was 208 nM.

Turning to `COc1ccc(C(=O)Nc2ccc3c(c2)N(C(=O)c2cccc(CN4CCN(c5ccccc5OC(C)C)CC4)c2)CC3)cc1` [Cpd 42, N-(1-{3-[4-(2-isopropoxy-phenyl)-piperazin-1-ylmethyl]-benzoyl}-2,3-dihydro-1H-indol-5-yl)-4-methoxy-benzamide], the values for the Ki in experiment [1], in experiment [2] and in experiment [3] were 3.8 nM, 5.8 nM and 447 nM, respectively.
